# Assay: Spiking the product matrices with ClO2 gas
# Settings: product matrices spiked with ClO2 gas
# From the text: Headspace samples underwent a colorimetric analysis for ClO2 gas.
smiles,measurement,value
"[O][Cl+][O-] [ClO2 gas, chlorine dioxide]",chlorine dioxide in the residual juice and tomato samples after spiking,no detectable chlorine dioxide

# From US20190335746A1, “ANTIMICROBIAL GAS RELEASING AGENTS AND SYSTEMS AND METHODS FOR USING THE SAME” (priority 2016, published 2019)
